In the test the target is IKZF2 Helios (Homo sapiens, UniProt Q96SW2+Q9UKS7). As to the kind of experiment: Jurkat Cellular Degradation Assay (Helios). Type of test: cell-based. On the set-up: endogenous in cells; host or cells: Jurkat cells. As to conditions: Jurkat cells, 72 h. As to the method: Jurkat cells were plated at 80,000 cells/well in 40 μL RPMI+10% FBS in a 384-well cell culture plate prior to using acoustic dispensing technology for adding a compound of interest. Cell cultures were incubated for 72 h at 37° C. and 5% CO2. In order to facilitate analysis, cell cultures were spun down at 200 rpm for 5 min and the supernatant was discarded. After shaking the plate to dislodge the cell pellet, cells were resuspended in 50 μL of Fixation Buffer (eBioscience FoxP3 buffer set 00-5523-00) for 60 min at room temperature. After centrifuging and discarding the supernatant, cells were permeabilized with 50 μL of Permeabilization buffer (eBioscience FoxP3 buffer set 00-5523-00) for 10 min at room temperature. […] Stained cells were resuspended in 25 μL of flow cytometry staining buffer [PBS+0.2% bovine serum albumin (BSA)] and analyzed using an Intellicyt Ique Plus flow cytometer.
Table A-1 lists the maximum observed degradation of the IKZF1 protein, IKZF2 protein, and IKZF3 protein as measured in the Jurkat Cellular Degradation assay. […]

As a reminder, the DC50 is the concentration at which degradation of the target reaches its halfway point. A low value points to a more potent degrader.

IKZF2 Helios, sequence (Q9UKS7 whole entry): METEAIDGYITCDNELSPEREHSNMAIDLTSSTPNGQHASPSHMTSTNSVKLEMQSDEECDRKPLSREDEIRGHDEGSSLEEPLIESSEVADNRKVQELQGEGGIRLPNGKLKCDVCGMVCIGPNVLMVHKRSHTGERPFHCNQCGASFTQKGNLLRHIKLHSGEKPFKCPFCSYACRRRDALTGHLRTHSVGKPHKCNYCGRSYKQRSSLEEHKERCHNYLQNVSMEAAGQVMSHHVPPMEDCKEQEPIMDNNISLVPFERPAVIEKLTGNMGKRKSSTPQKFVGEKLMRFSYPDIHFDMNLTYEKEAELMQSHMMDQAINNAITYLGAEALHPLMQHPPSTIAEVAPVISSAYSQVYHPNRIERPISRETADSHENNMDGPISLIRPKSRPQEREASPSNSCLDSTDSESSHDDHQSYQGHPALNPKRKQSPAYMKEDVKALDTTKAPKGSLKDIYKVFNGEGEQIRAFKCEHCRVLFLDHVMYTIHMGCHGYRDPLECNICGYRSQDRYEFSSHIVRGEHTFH
IKZF2 Helios, sequence (Q96SW2 whole entry): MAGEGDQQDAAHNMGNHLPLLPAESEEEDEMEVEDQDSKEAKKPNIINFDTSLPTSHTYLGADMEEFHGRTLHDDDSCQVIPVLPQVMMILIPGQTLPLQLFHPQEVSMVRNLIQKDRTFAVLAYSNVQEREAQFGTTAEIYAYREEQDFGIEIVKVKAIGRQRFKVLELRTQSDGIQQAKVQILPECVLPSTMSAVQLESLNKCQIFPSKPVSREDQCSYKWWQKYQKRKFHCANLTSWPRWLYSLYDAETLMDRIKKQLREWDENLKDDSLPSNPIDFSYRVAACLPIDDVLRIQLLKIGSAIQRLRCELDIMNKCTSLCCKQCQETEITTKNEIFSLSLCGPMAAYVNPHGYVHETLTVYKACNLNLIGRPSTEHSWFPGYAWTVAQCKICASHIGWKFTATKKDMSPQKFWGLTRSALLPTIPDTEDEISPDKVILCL
IKZF2 Helios, sequence (Q16531 whole entry partner): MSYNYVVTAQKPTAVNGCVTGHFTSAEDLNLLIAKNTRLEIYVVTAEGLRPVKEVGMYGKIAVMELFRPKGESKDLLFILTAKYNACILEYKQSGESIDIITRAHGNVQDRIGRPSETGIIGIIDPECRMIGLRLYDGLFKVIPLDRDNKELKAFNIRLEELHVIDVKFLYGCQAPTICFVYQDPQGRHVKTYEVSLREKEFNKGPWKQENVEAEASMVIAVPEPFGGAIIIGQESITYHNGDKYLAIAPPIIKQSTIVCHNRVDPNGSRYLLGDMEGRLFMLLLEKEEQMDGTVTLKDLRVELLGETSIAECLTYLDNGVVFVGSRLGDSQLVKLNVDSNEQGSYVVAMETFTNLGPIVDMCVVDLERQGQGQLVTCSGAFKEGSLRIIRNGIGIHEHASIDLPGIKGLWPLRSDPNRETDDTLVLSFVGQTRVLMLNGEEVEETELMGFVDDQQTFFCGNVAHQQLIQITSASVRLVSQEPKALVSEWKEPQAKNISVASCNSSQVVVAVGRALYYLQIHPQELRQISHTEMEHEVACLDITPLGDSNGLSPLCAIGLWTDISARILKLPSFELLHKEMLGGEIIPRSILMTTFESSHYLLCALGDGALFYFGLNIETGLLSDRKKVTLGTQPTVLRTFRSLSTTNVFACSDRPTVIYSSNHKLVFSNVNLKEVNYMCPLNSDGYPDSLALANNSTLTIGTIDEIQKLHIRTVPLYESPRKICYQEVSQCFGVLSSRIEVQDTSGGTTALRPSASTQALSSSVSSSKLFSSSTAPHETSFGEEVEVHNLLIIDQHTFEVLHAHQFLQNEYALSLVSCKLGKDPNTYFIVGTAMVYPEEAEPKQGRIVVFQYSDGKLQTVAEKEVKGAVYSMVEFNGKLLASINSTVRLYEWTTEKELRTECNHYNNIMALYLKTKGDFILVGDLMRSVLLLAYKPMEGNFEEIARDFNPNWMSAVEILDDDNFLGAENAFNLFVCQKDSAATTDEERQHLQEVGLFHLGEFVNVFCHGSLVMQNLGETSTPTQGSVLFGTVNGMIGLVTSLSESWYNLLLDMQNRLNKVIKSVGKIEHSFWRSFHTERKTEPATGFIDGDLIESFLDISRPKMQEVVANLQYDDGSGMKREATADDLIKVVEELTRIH

In turn, `Nc1nc(-c2ccc3c(c2F)CN(C2CCC(=O)NC2=O)C3=O)ccc1CN1CC(C2CCC(F)(F)CC2)C1` (centres unmarked) [Example 1, 3-(5-(6-Amino-5-((3-(4,4-difluorocyclohexyl)azetidin-1-yl)methyl)pyridin-2-yl)-4-fluoro-1-oxoisoindolin-2-yl) piperidine-2,6-dione] came in with a DC50 (concentration reducing protein level by 50% compared to DMSO alone) of 4.4 nM. In addition, the Dmax (human, read-out: IKZF2 Helios max % deg. observed) stood at 92%.

(Values after patent US20260335299A1, “SUBSTITUTED OXOISOINDOLINYL PIPERIDINE-2,6-DIONE COMPOUND AS ANTICANCER AGENT” (BRISTOL-MYERS SQUIBB COMPANY, priority 2023, published 2026).)
